In patent US11584744B2 (UNIVERSITY OF WASHINGTON, priority 2017, dated 2023):
pEC50, pIC50: −log10 of the molar value. In brackets after ≈: the same amount, converted by molar mass. Like-named read-outs stand apart in the source and are kept apart here.

Experiments:
T. cruzi = T. cruzi growth inhibition; format: cell-based, Trypanosoma cruzi; conditions: read-out: (E) T. cruzi EC50
C. parvum = C. parvum growth inhibition; format: cell-based, Cryptosporidium parvum; conditions: read-out: (J) C. parvum EC50
MetRS (C. parvum) = MetRS (C. parvum) (Cryptosporidium parvum, UniProt Q5CVN0); assay: MetRS (C. parvum) enzyme inhibition; format: biochemical; conditions: read-out: (C) MetRS (C. parvum) IC50
Sequence of MetRS (C. parvum) (Q5CVN0 entry or part of it): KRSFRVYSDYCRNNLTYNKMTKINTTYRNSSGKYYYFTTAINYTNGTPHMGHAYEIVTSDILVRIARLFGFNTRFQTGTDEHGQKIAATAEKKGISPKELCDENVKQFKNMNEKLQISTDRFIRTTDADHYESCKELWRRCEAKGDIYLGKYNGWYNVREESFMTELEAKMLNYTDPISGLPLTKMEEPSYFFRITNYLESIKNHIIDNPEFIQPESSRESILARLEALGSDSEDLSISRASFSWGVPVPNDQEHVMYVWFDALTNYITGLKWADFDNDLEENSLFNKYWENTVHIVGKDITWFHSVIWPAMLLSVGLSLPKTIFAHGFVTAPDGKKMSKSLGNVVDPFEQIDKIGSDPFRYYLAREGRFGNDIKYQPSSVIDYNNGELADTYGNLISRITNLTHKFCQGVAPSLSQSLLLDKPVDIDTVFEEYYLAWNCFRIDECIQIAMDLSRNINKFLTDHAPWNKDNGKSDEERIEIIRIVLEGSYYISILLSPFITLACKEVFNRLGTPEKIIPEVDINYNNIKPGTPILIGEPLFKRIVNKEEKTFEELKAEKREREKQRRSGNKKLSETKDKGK

[1] = system: S. aureus MSSA (ATCC 29213); assay: MIC susceptibility testing; format: cell-based, Staphylococcus aureus; conditions: S. aureus ATCC 29213; for MIC: Staphylococcus aureus, read-out: (F) S. aureus (ATCC 29213) MIC
Description: Media and culture conditions. Mueller Hinton broth (MHB), cation adjusted Mueller Hinton broth (CA-MHB), and Brain Heart Infusion broth (BHI) were purchased from Becton Dickinson (Franklin Lakes, N.J.). Tryptic soy agar (TSA) plates, TSA with 5% sheep blood plates, and CA-MHB with 3% laked horse blood were purchased from Remel (San Diego, Calif.). MHB was used to assay all Staphylococcus aureus strains. CA-MHB was used for Staphylococcus epidermidis, Enterococcus faecalis, Enterococcus faecium, Escherichia coli, and Pseudomonas aeruginosa. CA-MHB supplemented with 3% laked horse blood was used for Streptococcus pneumoniae and Streptococcus pyogenes. Staphylococcus, Enterococcus, Escherichia, and Pseudomonas strains were cultured at 37° C. with ambient air. Streptococcus strains were cultured in 37° C. with 5% CO2. Separate conditions for radiolabeled precursor uptake assays are described below.
Susceptibility testing: Minimum inhibitory concentration (MIC) determinations were performed in triplicate in 96-well round bottom microtiter plates (Corning, Corning N.Y.) as described by the Clinical and Laboratory Standards Institute (CLSI). Serial two-fold dilutions of compounds were added to plates in 50 μL volumes. An additional 50 μL of media containing bacterial cells (1×10^6 CFUs/mL) was then added to each well. Maximum DMSO concentrations were 0.5%. Plates were incubated at 37° C. for at least 18 h before reading the susceptibility result by optical absorbance (OD600) using a BioTek ELx800. The lowest concentration causing ≥90% growth inhibition compared to the untreated control was recorded as the MIC (and also corresponded to the visual MIC). MICs were measured at least twice and the higher value (if different) was recorded herein.

MetRS (T. brucei) = target: T1, MetRS (T. brucei) (Trypanosoma brucei brucei, UniProt Q38C91); assay: MetRS (T. brucei) enzyme inhibition; format: biochemical
T1 sequence (Q38C91 1-773): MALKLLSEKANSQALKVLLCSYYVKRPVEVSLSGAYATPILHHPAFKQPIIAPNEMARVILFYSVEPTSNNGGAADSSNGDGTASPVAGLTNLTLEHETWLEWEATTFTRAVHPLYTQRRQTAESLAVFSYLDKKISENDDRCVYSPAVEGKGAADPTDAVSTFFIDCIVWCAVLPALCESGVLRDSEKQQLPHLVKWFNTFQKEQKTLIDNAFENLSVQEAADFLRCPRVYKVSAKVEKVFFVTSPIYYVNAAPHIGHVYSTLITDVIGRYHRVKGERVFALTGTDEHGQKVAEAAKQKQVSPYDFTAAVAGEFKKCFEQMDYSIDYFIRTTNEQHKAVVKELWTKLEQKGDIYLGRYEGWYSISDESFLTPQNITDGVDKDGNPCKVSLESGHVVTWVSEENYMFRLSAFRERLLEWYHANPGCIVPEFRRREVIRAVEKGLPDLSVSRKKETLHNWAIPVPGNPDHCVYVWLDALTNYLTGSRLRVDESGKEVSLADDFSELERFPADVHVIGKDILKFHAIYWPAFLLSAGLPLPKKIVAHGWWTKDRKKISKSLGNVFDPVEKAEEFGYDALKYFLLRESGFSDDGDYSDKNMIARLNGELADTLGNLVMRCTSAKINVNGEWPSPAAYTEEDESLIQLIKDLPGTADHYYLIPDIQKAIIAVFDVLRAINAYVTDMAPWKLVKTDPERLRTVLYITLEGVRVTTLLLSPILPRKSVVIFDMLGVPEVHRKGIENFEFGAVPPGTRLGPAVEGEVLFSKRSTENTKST

T. brucei = T. brucei growth inhibition; format: cell-based, Trypanosoma brucei; conditions: read-out: (D) T. brucei EC50

With `COc1ccc(Cc2cn(Cc3nc4c(F)c(F)ccc4[nH]3)c(=O)n2CC(F)F)c(Cl)c1` [Compound 2261, 4-[(2-chloro-4-methoxyphenyl)methyl]-1-[(6,7-difluoro-1H-1,3-benzodiazol-2-yl)methyl]-3-(2,2-difluoroethyl)-2,3-dihydro-1H-imidazol-2-one] the pEC50 (T. cruzi; Trypanosoma cruzi) was 6.67, the pEC50 (C. parvum; Cryptosporidium parvum) was 6.47 and the pEC50 (C. parvum) was 6.25.

With `CC(C)(C)n1c(Cc2ccc(Cl)cc2Cl)cn(Cc2nc3ccc(F)nc3[nH]2)c1=O` [Compound 2084, 3-tert-butyl-4-[(2,4-dichlorophenyl)methyl]-1-({5-fluoro-1H-imidazo[4,5-b]pyridin-2-yl}methyl)-2,3-dihydro-1H-imidazol-2-one] the pIC50 (MetRS (C. parvum)) was over 7.40, the MIC [1] was 2.04 µg/mL (≈ 4.55 µM) and the pIC50 (MetRS (T. brucei)) was over 7.40. It also gave a pEC50 (T. cruzi; Trypanosoma cruzi) of 6.22.

`CCn1c(Cc2ccc(Cl)cc2Cl)cn(Cc2nc3c(ccc(Cl)[n+]3[O-])[nH]2)c1=O` [Compound 2235, 1-({5-chloro-4-oxo-1H-4λ^5-imidazo[4,5-b]pyridin-2-yl}methyl)-4-[(2,4-dichlorophenyl)methyl]-3-ethyl-2,3-dihydro-1H-imidazol-2-one] gave a pIC50 (MetRS (C. parvum)) of under 6.00, a pEC50 (T. brucei; Trypanosoma brucei) of 5.98 and a pEC50 (C. parvum; Cryptosporidium parvum) of under 5.70.

In the case of `COc1ccc(-c2cccn3c(=S)n(Cc4nc5nc(Cl)ccc5[nH]4)cc23)c(Cl)c1` [Compound 2243, 2-({5-chloro-1H-imidazo[4,5-b]pyridin-2-yl}methyl)-8-(2-chloro-4-methoxyphenyl)-2H,3H-imidazo[1,5-a]pyridine-3-thione], the pEC50 (T. cruzi; Trypanosoma cruzi) was 7.01, the pEC50 (T. cruzi) was 6.76 and the pEC50 (C. parvum; Cryptosporidium parvum) was 6.12. It also gave a pEC50 (C. parvum) of 5.84.

With `O=c1[nH]c(C(O)c2ccc(Cl)cc2Cl)cn1Cc1nc2nc(Cl)ccc2[nH]1` (stereo not drawn) [Compound 2202, 1-({5-chloro-1H-imidazo[4,5-b]pyridin-2-yl}methyl)-4-[(2,4-dichlorophenyl)(hydroxy)methyl]-2,3-dihydro-1H-imidazol-2-one] the pIC50 (MetRS (C. parvum)) was 6.67, the “(F) S. aureus (ATCC 29213) MIC” value [1] was 13.2 µg/mL and the MIC [1] was over 10 µg/mL. It also gave a pIC50 (MetRS (T. brucei)) of 7.26, a pEC50 (T. brucei; Trypanosoma brucei) of 7.34 and a pEC50 (T. cruzi; Trypanosoma cruzi) of 5.57.

`COc1ccc(-c2cnc(NC(C)=O)c3nc(Cc4nc5nc(Cl)ccc5[nH]4)cn23)c(Cl)c1` [Compound 2186, N-[2-({5-chloro-1H-imidazo[4,5-b]pyridin-2-yl}methyl)-5-(2-chloro-4-methoxyphenyl)imidazo[1,2-a]pyrazin-8-yl]acetamide] was tested, and the pIC50 (MetRS (C. parvum)) was 7.31, the “(F) S. aureus (ATCC 29213) MIC” value [1] was 3.21 µg/mL and the MIC [1] was 3.8 µg/mL (≈ 7.88 µM). For the same compound, the pIC50 (MetRS (T. brucei)) was 7.23, the pEC50 (T. brucei; Trypanosoma brucei) was 7.60 and the pEC50 (T. cruzi; Trypanosoma cruzi) was 6.44.

For `COC(=O)c1c(Cl)ccc2[nH]c(Cc3cn4c(-c5ccc(OC)cc5Cl)cccc4n3)nc12` [Compound 2236, methyl 5-chlor0-2-{[5-(2-chloro-4-methoxyphenyl)imidazo[1,2-a]pyridin-2-yl]methyl}-1H-1,3-benzodiazole-4-carboxylate], the pIC50 (MetRS (C. parvum)) was 6.47, the pEC50 (T. brucei; Trypanosoma brucei) was 5.78 and the pEC50 (C. parvum; Cryptosporidium parvum) was under 5.70.

`O=c1n(Cc2nc3c(F)c(F)ccc3[nH]2)cc(Cc2ccc(Cl)cc2Cl)n1CC(F)F` [Compound 2263, 4-[(2,4-dichlorophenyl)methyl]-1-[(6,7-difluoro-1H-1,3-benzodiazol-2-yl)methyl]-3-(2,2-difluoroethyl)-2,3-dihydro-1H-imidazol-2-one] gave an MIC [1] of 3.29 µg/mL (≈ 6.95 µM), a pEC50 (T. brucei; Trypanosoma brucei) of 7.19 and a pEC50 (T. brucei) of 7.16. It also gave a pEC50 (T. cruzi; Trypanosoma cruzi) of 6.44 and a pEC50 (C. parvum; Cryptosporidium parvum) of under 5.70.

With `CC(=O)N1CCC(Cn2c(Cc3ccc(Cl)cc3Cl)cn(Cc3nc4nc(F)ccc4[nH]3)c2=O)C(F)(F)C1` (stereo not drawn) [Compound 2265, 3-[(1-acetyl-3,3-difluoropiperidin-4-yl)methyl]-4-[(2,4-dichlorophenyl)methyl]-1-({5-fluoro-1H-imidazo[4,5-b]pyridin-2-yl}methyl)-2,3-dihydro-1H-imidazol-2-one] the MIC [1] was 1.62 µg/mL (≈ 2.86 µM), the pEC50 (T. cruzi; Trypanosoma cruzi) was 6.49 and the pEC50 (C. parvum; Cryptosporidium parvum) was 5.74.

`Clc1ccc2[nH]c(Cc3cn4c(-c5cc(OCCOC6CCCCO6)c(Cl)cc5Cl)cccc4n3)nc2n1` (stereo not drawn) [Compound 2271, 2-({5-chloro-1H-imidazo[4,5-b]pyridin-2-yl}methyl)-5-{2,4-dichloro-5-[2-(oxan-2-yloxy)ethoxy]phenyl}-imidazo[1,2-a]pyridine] was tested, and the pEC50 (T. brucei; Trypanosoma brucei) was 7.27, the pEC50 (T. cruzi; Trypanosoma cruzi) was 6.31 and the pEC50 (C. parvum; Cryptosporidium parvum) was under 5.70.

In the case of `OCCOc1cc(-c2cccc3nc(Cc4nc5nc(Cl)ccc5[nH]4)cn23)c(Cl)cc1Cl` [Compound 2270, 2-{2,4-dichloro-5-[2-({5-chloro-1H-imidazo[4,5-b]pyridin-2-yl}methyl)imidazo[1,2-a]pyridin-5-yl]phenoxy}ethan-1-ol], the pEC50 (T. brucei; Trypanosoma brucei) was 7.36, the pEC50 (T. cruzi; Trypanosoma cruzi) was 6.15 and the pEC50 (C. parvum; Cryptosporidium parvum) was under 5.70.

With `COC(=O)c1c(Cl)ccc2[nH]c(Cn3cc(Cc4ccc(OC)cc4Cl)n(CC(C)(C)O)c3=O)nc12` [Compound 2237, methyl 5-chlor0-2-({4-[(2-chloro-4-methoxyphenyl)methyl]-3-(2-hydroxy-2-methylpropyl)-2-oxo-2,3-dihydro-1H-imidazol-1-yl}methyl)-1H-1,3-benzodiazole-4-carboxylate] the pIC50 (MetRS (C. parvum)) was under 6.00, the pEC50 (T. brucei; Trypanosoma brucei) was 6.26 and the pEC50 (C. parvum; Cryptosporidium parvum) was under 5.70.

With `CCn1c(Cc2ccc(Cl)cc2Cl)cn(Cc2nc3ccc(C)nc3[nH]2)c1=O` [Compound 2092, 4-[(2,4-dichlorophenyl)methyl]-3-ethyl-1-({5-methyl-1H-imidazo[4,5-b]pyridin-2-yl}methyl)-2,3-dihydro-1H-imidazol-2-one] the pIC50 (MetRS (C. parvum)) was 7.32, the MIC [1] was over 2.5 µg/mL and the pIC50 (MetRS (T. brucei)) was over 7.40. For the same compound, the pEC50 (T. cruzi; Trypanosoma cruzi) was 6.30.

Compound `COc1ccc(Cc2cn(Cc3nc4ncc(Cl)c(C)c4[nH]3)c(=O)n2CC(C)(C)O)c(Cl)c1` [Compound 2238, 4-[(2-chloro-4-methoxyphenyl)methyl]-1-({6-chloro-7-methyl-1H-imidazo[4,5-b]pyridin-2-yl}methyl)-3-(2-hydroxy-2-methylpropyl)-2,3-dihydro-1H-imidazol-2-one] has a pIC50 (MetRS (C. parvum)) of 6.90, a pEC50 (T. brucei; Trypanosoma brucei) of 6.76 and a pEC50 (C. parvum; Cryptosporidium parvum) of under 5.70.

In the case of `O=c1n(Cc2nc3ccc(F)nc3[nH]2)cc(Cc2ccc(Cl)cc2Cl)n1C1CCCC1` [Compound 2081, 3-cyclopentyl-4-[(2,4-dichlorophenyl)methyl]-1-({5-fluoro-1H-imidazo[4,5-b]pyridin-2-yl}methyl)-2,3-dihydro-1H-imidazol-2-one], the pIC50 (MetRS (C. parvum)) was over 7.40, the MIC [1] was 1.33 µg/mL (≈ 2.89 µM) and the pIC50 (MetRS (T. brucei)) was over 7.40. It also gave a pEC50 (T. cruzi; Trypanosoma cruzi) of 6.36.

`CSc1nc(Cc2ccc(Cl)cc2Cl)cn1Cc1nc2ccc(F)nc2[nH]1` [Compound 2104, 4-[(2,4-dichlorophenyl)methyl]-1-({5-fluoro-1H-imidazo[4,5-b]pyridin-2-yl}methyl)-2-(methylsulfanyl)-1H-imidazole] showed a pIC50 (MetRS (C. parvum)) of 7.39, a pIC50 (MetRS (T. brucei)) of over 7.40 and a pEC50 (T. brucei; Trypanosoma brucei) of 7.13. For the same compound, the pEC50 (T. cruzi; Trypanosoma cruzi) was 5.83.

`CCn1c(Cc2ccc(Cl)cc2Cl)cn(Cc2nc3ccc(F)nc3[nH]2)c1=S` [Compound 2103, 4-[(2,4-dichlorophenyl)methyl]-3-ethyl-1-({5-fluoro-1H-imidazo[4,5-b]pyridin-2-yl}methyl)-2,3-dihydro-1H-imidazole-2-thione] was tested, and the pIC50 (MetRS (C. parvum)) was 6.76, the pIC50 (MetRS (T. brucei)) was 7.20 and the pEC50 (T. brucei; Trypanosoma brucei) was 6.95. The pEC50 (T. cruzi; Trypanosoma cruzi) was 5.53.

Compound `CSc1nc(Cc2ccc(Cl)cc2Cl)cn1Cc1nc2nc(Cl)ccc2[nH]1` [Compound 2109, 1-({5-chloro-1H-imidazo[4,5-b]pyridin-2-yl}methyl)-4-[(2,4-dichlorophenyl)methyl]-2-(methylsulfanyl)-1H-imidazole] has a pIC50 (MetRS (C. parvum)) of over 7.40, a pIC50 (MetRS (T. brucei)) of over 7.40 and a pEC50 (T. brucei; Trypanosoma brucei) of 7.27. The pEC50 (T. cruzi; Trypanosoma cruzi) was 6.48.
